Results: US11155523B2, “Biphenyl compound as CCR2/CCR5 receptor antagonist” (Medshine Discovery Inc., priority 2016, dated 2021)

Experiments:
[1] = target: T1, CCR5 (Homo sapiens, UniProt P51681); assay: CCR5 in vitro test: intracellular calcium signal detected by FLIPR; format: cell-based; conditions: HEK293 cells expressing CCR5, agonist RANTES at EC80, calcium signal
T1 construct: expressed in transfected cells; host or cells: HEK293, clone C13, passage P4
Experimental: (§1) Experimental Example 1: CCR2/CCR5 In Vitro Test
(§2) The intracellular calcium signal was detected by FLIPR, and the IC50 value of the compound was used as an index to evaluate the inhibitory effect of the compound on CCR2 and CCR5 receptors.
(§3) 1. Cell line: The cells were inoculated and incubated in a 5% CO2 incubator at 37° C. overnight.
(§4) CCR2/CCR5 density: 1 M (20 k/well)
(§5) 2. Reagents: Fluo-4 Direct, (Invitrogen, Cat #F10471)
(§6) The compound was dissolved in DMSO to prepare a 10 mM solution, and the compound solution was placed in a nitrogen box.
(§7) Agonist reference compounds:
(§8) Preparation of probenecid in FLIPR assay buffer: 1 mL of FLIPR assay buffer was added to […] of probenecid to prepare a 250 mM solution, which is prepared fresh daily.
(§9) 2× (8 μM) Fluo-4 Direct™ Loading Buffer (per 10 mL) • Thaw a bottle of Fluo-4 Direct™ crystal (F10471). • Add 10 mL of FLIPR assay buffer to the vial. • Add 0.2 mL of probenecid to each 10 mL of Fluo-Direct. The final concentration of the assay was 2.5 mM. • Rotate it and place for >5 minutes (in absence of light). • Prepare fresh daily.
(§10) MCP-1 was diluted in FLIPR assay buffer 1:2 into 10 points, starting at 0.5 uM (final 100 nM). RANTES was diluted in FLIPR assay buffer 1:3 into 10 points, starting at 0.5 uM (final 100 nM). 20 uL of serially diluted compound buffer was added to each well of the DRC plate according to the compound plate map.
(§11) Standard compound was diluted in DMSO 1:3 into 11 points, starting at 1 mM. Test compound was diluted in DMSO 1:3 into 11 points, starting at 2 mM. 250 nL of compound solution was transferred into a cell plate using Echo (Greiner #781946).
(§12) (c) Take the cell plate out of the incubator, and gently dispense 20 uL of 2× Fluo-4 Direct wash-free loading buffer into a 384-well cell culture plate using a pipette. The final cell plate is 40 μL in volume.
(§13) (d) Incubate for 50 minutes at 37° C. under 5% CO2, and for 10 minutes at room temperature.
(§14) (e) Take the cell plate out of the incubator, and place it in FLIPR. Place the composite plate and the tip box in FLIPR.
(§15) (f) For DRC plate: • 1) Run the program on FLIPRTETRA. • 2) Read the fluorescent signal. • 3) Transfer 10 μL of compound from the DRC plate to the cell plate. • 4) Read the fluorescent signal. • 5) Calculate the “maximum−minimum” from Read 90 to the maximum allowed. Use FLIPR to calculate the EC80 value of each cell line. • 6) Prepare 5×EC80 concentration of the agonist reference compound.
(§16) (g) For the composite plate (1-add): • 1) Run the program on FLIPRTETRA. • 2) Transfer 10 μl, of 5×EC80 concentration of the agonist reference compound from the composite plate to the cell plate. • 3) Read the fluorescent signal. • 4) Calculate the “maximum−minimum” from Read 90 to the maximum allowed.
(§17) (h) Analyze the data using Prism, and calculate the IC50 value of the compound.

[2] = target: T2, CCR2 (Homo sapiens, UniProt P41597); assay: CCR2 in vitro test: intracellular calcium signal detected by FLIPR; format: cell-based; conditions: HEK293 cells expressing CCR2, agonist MCP-1 at EC80, calcium signal
T2 construct: expressed in transfected cells; host or cells: HEK293, clone C7, passage P6
Experimental: as §1, §2, §3, §4, §5, §6, §7, §8, §9, §10, §11, §12, §13, §14, §15, §16, §17

T1 sequence (P51681 whole entry, species assumed): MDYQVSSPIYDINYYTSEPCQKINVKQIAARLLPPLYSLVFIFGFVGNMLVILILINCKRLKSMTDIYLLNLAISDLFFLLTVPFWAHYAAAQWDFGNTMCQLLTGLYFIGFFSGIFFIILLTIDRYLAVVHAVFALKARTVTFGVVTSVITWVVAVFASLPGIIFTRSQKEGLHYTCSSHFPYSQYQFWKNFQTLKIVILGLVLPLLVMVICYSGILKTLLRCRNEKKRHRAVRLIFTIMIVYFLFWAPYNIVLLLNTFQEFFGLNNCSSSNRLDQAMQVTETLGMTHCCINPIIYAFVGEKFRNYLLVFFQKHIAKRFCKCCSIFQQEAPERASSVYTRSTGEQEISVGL
T2 sequence (P41597 whole entry, species assumed): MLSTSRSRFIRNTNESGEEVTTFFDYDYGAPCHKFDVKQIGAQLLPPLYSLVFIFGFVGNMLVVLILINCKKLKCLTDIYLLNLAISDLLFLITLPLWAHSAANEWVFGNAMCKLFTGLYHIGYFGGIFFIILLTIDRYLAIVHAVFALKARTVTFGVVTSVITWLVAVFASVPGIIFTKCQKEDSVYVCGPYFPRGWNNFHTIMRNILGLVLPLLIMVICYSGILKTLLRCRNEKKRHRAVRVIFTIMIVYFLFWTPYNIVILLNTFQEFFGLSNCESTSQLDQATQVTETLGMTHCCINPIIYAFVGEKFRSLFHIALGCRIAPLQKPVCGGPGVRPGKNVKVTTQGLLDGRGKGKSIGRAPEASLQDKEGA

Row | SMILES | IC50 [1] | IC50 [2]
1 | CCCCOc1ccc(-c2cccc(/C=C/C(=O)Nc3ccc([S@@+]([O-])Cc4cncn4CCC)cc3)c2)cc1 [WX009] | 9.4 nM | 63.2 nM
2 | CCCCOCCOc1ccc(-c2ccc(F)c(/C=C/C(=O)Nc3ccc([S@@+]([O-])Cc4cncn4CCC)cc3)c2)cc1 [WX003] | 3 nM | 21.6 nM
3 | CCCn1cncc1C[S@+]([O-])c1ccc(NC(=O)/C=C/c2cccc(-c3ccc(OC(C)C)cc3)c2)cc1 [WX007] | 6.4 nM | 65.2 nM
4 | CCCCOc1ccc(-c2ccc(Cl)c(/C=C/C(=O)Nc3ccc([S+]([O-])Cc4cncn4CC)cc3)c2)cc1 (stereo not drawn) [WX020] | 8.2 nM | 68.1 nM
5 | CCCCOCCOc1ccc(-c2cccc(/C=C/C(=O)Nc3ccc([S@@+]([O-])Cc4cncn4CCC)cc3)c2)cc1 [WX001] | 9.3 nM | 29.9 nM
6 | CCCCOCCOc1ccc(-c2ccc(C(C)C)c(/C=C/C(=O)Nc3ccc([S@@+]([O-])Cc4cncn4CCC)cc3)c2)cc1 [WX006] | 3.3 nM | 32.1 nM
7 | CCCCOCCOc1ccc(-c2cccc(/C=C/C(=O)Nc3ccc([S@@+]([O-])Cc4nncn4CCC)cc3)c2)cc1 [WX010] | 17.2 nM | 214 nM
8 | CCCCOc1ccc(-c2ccc(Cl)c(/C=C/C(=O)Nc3ccc([S@@+]([O-])Cc4cncn4CCC)cc3)c2)cc1 [WX025] | 7.4 nM | 127 nM
9 | CCCCOc1ccc(-c2ccc(OC(F)F)c(/C=C/C(=O)Nc3ccc([S@@+]([O-])Cc4cncn4CCC)cc3)c2)cc1 [WX018] | 7.3 nM | 43.5 nM
10 | CCCCOCCOc1ccc(-c2ccc(Cl)c(/C=C/C(=O)Nc3ccc([S@@+]([O-])Cc4cncn4CCC)cc3)c2)cc1 [WX016] | 4.5 nM | 75.1 nM
11 | CCCn1cncc1C[S@+]([O-])c1ccc(NC(=O)/C=C/c2cccc(-c3ccc(OCC)cc3)c2)cc1 [WX004] | 7.1 nM | 153 nM
12 | CCCCOCCOc1ccc(-c2cccc(/C=C/C(=O)Nc3ccc([S+]([O-])Cc4cncn4CC)cc3)c2)cc1 (stereo not drawn) [WX019] | 50.9 nM | 9.3 nM
13 | CCCCOCCOc1ccc(-c2ccc(F)c(/C(C)=C/C(=O)Nc3ccc([S@@+]([O-])Cc4cncn4CCC)cc3)c2)cc1 [WX014] | 7.9 nM | 258 nM
14 | CCCCOc1ccc(-c2ccc(Cl)c(/C=C/C(=O)Nc3ccc([S+]([O-])Cc4cncn4CC4CC4)cc3)c2)cc1 (stereo not drawn) [WX021] | 8.8 nM | 64.5 nM
15 | CCCCOc1ccc(-c2ccc(OCCCF)c(/C=C/C(=O)Nc3ccc([S@@+]([O-])Cc4cncn4CCC)cc3)c2)cc1 [WX024] | 1.3 nM | 63.1 nM
16 | CCCCOCCOc1ccc(-c2cccc(/C=C(\C)C(=O)Nc3ccc([S@@+]([O-])Cc4cncn4CCC)cc3)c2)cc1 [WX008] | 1.5 nM | 17.3 nM
17 | CCCn1cncc1C[S@+]([O-])c1ccc(NC(=O)/C=C/c2cccc(-c3ccc(OC)cc3)c2)cc1 [WX002] | 113 nM | 319 nM
18 | CCCCOCCOc1ccc(-c2cccc(/C(C)=C/C(=O)Nc3ccc([S@@+]([O-])Cc4cncn4CCC)cc3)c2)cc1 [WX012] | 5.4 nM | 51 nM

Continued, values first:

Row | IC50 [1] | IC50 [2] | SMILES
19 | 6.9 nM | 5.5 nM | CCCCOCCOc1ccc(-c2cc(C)c(OC)c(/C=C/C(=O)Nc3ccc([S@+]([O-])Cc4c(C)ncn4CC)cc3)c2)cc1 [WX090]
20 | 11.9 nM | 80.8 nM | CCCOc1ccc(-c2ccc(OC(F)F)c(/C=C/C(=O)Nc3ccc([S@@+]([O-])Cc4cncn4CCC)cc3)c2)cc1 [WX052]
21 | 9.2 nM | 13.3 nM | CCCCOCCOc1ccc(-c2ccc(O)c(/C=C/C(=O)Nc3ccc([S@@+]([O-])Cc4cncn4CCC)cc3)c2)cc1 [WX049]
22 | 1.4 nM | 5.5 nM | CCCCOCCOc1ccc(-c2ccc(OC(F)F)c(/C=C/C(=O)Nc3ccc([S@@+]([O-])Cc4cncn4CCC)cc3)c2)cc1 [WX051]
23 | 8.4 nM | 39.2 nM | CCCCOCCOc1ccc(-c2ccc(C(F)(F)F)c(/C=C/C(=O)Nc3ccc([S@@+]([O-])Cc4c(C)ncn4CC)cc3)c2)cc1 [WX070]
24 | 6.1 nM | 12.8 nM | CCCOCCOc1ccc(-c2ccc(OC(F)F)c(/C=C/C(=O)Nc3ccc([S@@+]([O-])Cc4cncn4CCC)cc3)c2)cc1 [WX064]
25 | 2.8 nM | 1.1 nM | CCCCOCCOc1ccc(-c2ccc(OC(F)F)c(/C=C/C(=O)Nc3ccc([S@+]([O-])Cc4c(C)ncn4CC)cc3)c2)cc1 [WX046]
26 | 8.1 nM | 28.6 nM | CCCCOCCOc1ccc(-c2ccc(OCC)c(/C=C/C(=O)Nc3ccc([S@@+]([O-])Cc4cncn4CCC)cc3)c2)cc1 [WX032]
27 | 6.4 nM | 7.6 nM | CCCCOCCOc1ccc(-c2ccc(OC(F)(F)F)c(/C=C/C(=O)Nc3ccc([S@+]([O-])Cc4c(C)ncn4CC)cc3)c2)cc1 [WX055]
28 | 11.4 nM | 53.4 nM | CCCCOCCOc1ccc(-c2ccc(OC(F)F)c(/C=C/C(=O)Nc3ccc([S@@+]([O-])Cc4c(C)ncn4CCC)cc3)c2)cc1 [WX082]
29 | 34.2 nM | 167 nM | CCCCOCCOc1ccc(-c2cccc(/C=C/C(=O)Nc3ccc([S+]([O-])Cc4cncn4CC(C)C)cc3)c2)cc1 (stereo not drawn) [WX029]
30 | 8.5 nM | 9.9 nM | CCCCOCCOc1ccc(-c2cc(C)cc(/C=C/C(=O)Nc3ccc([S@@+]([O-])Cc4cncn4CCC)cc3)c2)cc1 [WX059]
31 | 16.1 nM | 215 nM | CCCCOCCOc1ccc(-c2cc(/C=C/C(=O)Nc3ccc([S@@+]([O-])Cc4cncn4CCC)cc3)c(OC)c(OC)c2)cc1 [WX035]
32 | 11.8 nM | 56.3 nM | CCCCOCCOc1ccc(-c2ccc(OC(C)C)c(/C=C/C(=O)Nc3ccc([S@@+]([O-])Cc4cncn4CCC)cc3)c2)cc1 [WX033]
33 | 9.1 nM | 250 nM | CCCCOCCOc1ccc(-c2cc(/C=C/C(=O)Nc3ccc([S@@+]([O-])Cc4cncn4CCC)cc3)c(OC)cc2Cl)cc1 [WX043]
34 | 15.9 nM | 300 nM | CCCCOc1ccc(-c2ccc(Cl)c(/C=C/C(=O)Nc3ccc([S+]([O-])Cc4cncn4CC(C)C)cc3)c2)cc1 (stereo not drawn) [WX030]
35 | 44.2 nM | 62.2 nM | CCCn1cncc1C[S@+]([O-])c1ccc(NC(=O)/C=C/c2cccc(-c3ccc(N4CCCC4)cc3)c2)cc1 [WX037]
36 | 9.2 nM | 43.4 nM | CCCCOCCOc1ccc(-c2ccc(OC(F)(F)F)c(/C=C/C(=O)Nc3ccc([S@@+]([O-])Cc4c(C)ncn4CC)cc3)c2)cc1 [WX054]
37 | 2.6 nM | 11.8 nM | CCCCOc1ccc(-c2ccc(OC)c(/C=C/C(=O)Nc3ccc([S@@+]([O-])Cc4cncn4CCC)cc3)c2)cc1 [WX048]
38 | 15.1 nM | 25.1 nM | CCCOCCOc1ccc(-c2ccc(OC(F)F)c(/C=C/C(=O)Nc3ccc([S@+]([O-])Cc4c(C)ncn4CCC)cc3)c2)cc1 [WX080]
39 | 10.5 nM | 11.3 nM | CCCCOCCOc1ccc(-c2ccc(OC)c(/C=C/C(=O)Nc3ccc([S@@+]([O-])Cc4cncn4CC)cc3)c2)cc1 [WX040]
40 |  | 15 nM | CCCCOCCOc1ccc(-c2cc(F)c(OCC)c(/C=C/C(=O)Nc3ccc([S@+]([O-])Cc4c(C)ncn4CC)cc3)c2)cc1 [WX089]
41 | 5.9 nM | 11.9 nM | CCCCOCCOc1ccc(-c2ccc(C3CCCC3)c(/C=C/C(=O)Nc3ccc([S@@+]([O-])Cc4c(C)ncn4CC)cc3)c2)cc1 [WX072]
42 | 4.4 nM | 4.7 nM | CCCCOCCOc1ccc(-c2ccc(F)c(/C=C/C(=O)Nc3ccc([S@+]([O-])Cc4c(C)ncn4CC)cc3)c2)cc1 [WX091]
43 | 95.9 nM | 237 nM | CCCCOCCOc1ccc(-c2cccc(/C=C/C(=O)Nc3ccc(S(=O)(=O)Cc4cncn4CCC)cc3)c2)cc1 [WX031]
44 | 2.4 nM | 17.3 nM | CCCCOCCOc1ccc(-c2ccc(OC)c(/C=C/C(=O)Nc3ccc([S@+]([O-])Cc4c(C)ncn4CCC)cc3)c2)cc1 [WX075]
